Reference: a melting point compilation (Tetko et al.; mined from patent text by program, amines drawn as free bases though some values may be those of a salt)

| SMILES | melting point [°C] |
| --- | --- |
| Clc1nc(Br)cnc1N1CCNCC1 | 114 to 115 |
| COC(=O)[C@@H]1C[C@H](C(=O)O)Nc2cc(Cl)c(Cl)c(Cl)c21 (relative stereo) | 210 |
| COc1ccc(-c2nccc3c(CC(=O)O)cccc23)cc1 | 210 to 211 |
| O=c1nc(-c2ccccc2)oc2ccccc12 | 104 to 105 |
| CCC(=O)Nc1c(C#N)cnn1-c1ccc(OC(F)(F)F)cc1Cl | 127 |
| Cn1cncc1C(O)(c1ccc(Cl)cc1)c1ccc2c(c1)c(-c1cccc(Cl)c1)nc1nnnn12 (stereo unspecified) | 139 |
| COC(=O)c1ccc(-c2ccncc2)c(C)c1 | 70 to 71 |
| CNC(=O)Cn1c(=O)c(=O)[nH]c2cc(C(F)(F)F)c(-n3cccc3)cc21 | > 250 |
| Cn1c([N+](=O)[O-])cnc1-c1nc(Cl)c2ccccc2n1 | 178 to 181 |
| Cc1nnc2n1-c1ccc(Br)cc1C(c1ccccc1F)=NC2NC(=O)OCc1ccccc1 (stereo unspecified) | 160 to 170 |
| CCON=C(CC)C1=C(O)CC(c2ccc3c(c2)N(COC)C(=O)CO3)CC1=O (stereo unspecified) | 101 to 103 |
| COc1ccc(N2C(=O)C(O[Si](C(C)C)(C(C)C)C(C)C)C2c2ccc(C(F)(F)F)cc2)cc1 (stereo unspecified) | 132 to 133 |
| COC(=O)C(C#N)=C(N)c1c(-c2ccccc2)noc1N | 256 |
| COCOc1ccc(Cc2cccc(-c3c(O)c4ccc(Cl)cc4[nH]c3=O)c2)cc1 | 261 to 264 |
| CNC(=O)c1cc(Cl)cc(Cl)c1NC(=O)c1cc(Br)nn1-c1ccccc1Cl | 209 to 210 |
| COC(=O)c1cc2c3ccccc3n(Cc3ccccc3)c2s1 | 158 to 159 |
| CC(C)(C)OC(=O)NC(CC(O)CNC(Cc1ccccc1)C(O)CNC(=O)OCc1ccccc1)c1ccccc1 (stereo unspecified) | 120 to 121 |
| O=C(O)c1cccc2c(-c3ccccc3)coc12 | 220 to 222 |
| COc1ccc(-c2sc3c(c2C)c(=O)c(C#N)cn3Cc2ccccc2F)cc1 | 215 to 216 |
| CC(C)(C)c1ccc(C(=O)Nc2cn3c(CO)cccc3n2)cc1 | 229 to 230 |

| SMILES | melting point [°C] |
| --- | --- |
| COc1cc(C(=O)Nc2c(C)cc3cn(C(=O)OC(C)(C)C)nc3c2C(=O)NC(C)C)n(N2C=CC=C(Cl)C2)n1 | 161 to 162 |
| C[Si](C)(C)C#Cc1cn(-c2c(Cl)cc(C(F)(F)F)cc2Cl)nc1C(F)(F)F | 105 to 108 |
| CCn1ncc2cc3c(nc21)C(Cl)c1ccccc1CC3 (stereo unspecified) | 107 to 110 |
| Clc1ccc2c(Nc3ccccc3)ccnc2c1 | 207 |
| Nc1ncc(-c2cnc3[nH]c(=O)n(CC4CCCCC4)c3n2)cn1 | > 250 |
| CC(C)CC1(C(CCNC(=O)c2ccc(F)c(F)c2)C(=O)NO)CCN(CCc2ccccc2)C1=O (stereo unspecified) | 132 to 134 |
| NCC(=O)NCc1cccnc1 | 87 to 88 |
| O=C(Cn1c(-c2ccccc2)ccc(NC(=O)OCc2ccccc2)c1=O)NC(Cc1ccccc1)C(=O)C(F)(F)F (stereo unspecified) | 178 to 181 |
| O=C1c2cc([N+](=O)[O-])ccc2OCCN1CCO | 151 |
| O=C(CN1CCCCC1)Nc1ccc([N+](=O)[O-])cc1 | 144 to 145 |
| Cc1ccc(C)n1-c1ccc([C@@H](O)CN2C(=O)c3ccccc3C2=O)cn1 | 167 to 170 |
| C[C@@H]1Cc2cc(N3C[C@H](CN=[N+]=[N-])OC3=O)ccc2N1C(=O)OCc1ccccc1 | 192 to 193 |
| CSC(=C[N+](=O)[O-])N1CCCCC1 | 65 to 67 |
| O=C(Nc1ccnc(Cl)c1)NC1CCCC1 | 119 to 121 |
| C[Si](C)(C)OC(CCl)(Cn1cncn1)c1ccc(F)cc1F (stereo unspecified) | 59 to 61 |
| COc1cc(C=O)ccc1OCC1CO1 (stereo unspecified) | 56 to 58 |
| COc1cccc(Oc2c(NS(=O)(=O)c3ccc(C(C)(C)C)cc3)ncnc2OCCOc2ncc(C(C)O)cn2)c1 (stereo unspecified) | 133 to 135 |
| Clc1nc(NCc2ccc3c(c2)OCO3)c2c3c(sc2n1)CCCC3 | 222 |
| FC1=Cc2ccccc2Nc2ccccc21 | 69 to 72 |
| O=C(c1ccccc1)c1cccc2c1CCCC2C(=O)O (stereo unspecified) | 164 to 165 |

| SMILES | melting point [°C] |
| --- | --- |
| O[C@@H]1CCc2cc(F)c(F)cc2C1 | 88 to 92 |
| CSc1nn2c(O)cc(CN3CCN(C)CC3)nc2c1S(=O)(=O)c1ccccc1 | > 220 |
| C[C@@H](NC(=O)c1sc(-c2ccc(Cl)cc2)nc1C(F)(F)F)[C@](O)(Cn1cncn1)c1ccc(F)cc1F | 78 to 79 |
| CN1C(=O)C(C2=COc3ccccc3O2)=C(c2cn(C(=O)OC(C)(C)C)c3cc(OCc4ccccc4)ccc23)C1=O | 88 |
| CN(C)c1nonc1-c1nc2ccccc2n1CC(=O)c1ccc(Cl)cc1 | 120 to 123 |
| Cc1cccc(NC(c2ccc(OC(C)C)cc2)c2ccc3cccnc3c2O)n1 (stereo unspecified) | 132 to 134 |
| CS(=O)(=O)CCN1C(=O)CN=C(c2ccccc2)c2cc(Cl)ccc21 | 135 to 156 |
| CC1(C)CC(=O)c2c(O)cc(O)cc2C1 | 115 to 116 |
| COc1ccc(CC(=O)c2ccc(OCc3ccccc3)cc2)cc1 | 147 to 148 |
| CCC(C)(N=NC(C)(CC)NC(=O)Nc1ccccc1)NC(=O)Nc1ccccc1 (stereo unspecified) | 118 to 120 |
| CC1=NC(NC(=O)Nc2cccc(C)c2)C(=O)N(CC(=O)N2CCCCCC2)c2c(C)cccc21 (stereo unspecified) | 204 |
| O=CNNc1ccc(NC(=O)c2cccc([N+](=O)[O-])c2)cc1 | 185 to 187 |
| CN(C)C(c1cccc(F)c1)C1CCC(C=O)CC1 (stereo unspecified) | 40 to 43 |
| CCOC(=O)c1cnc2c([N+](=O)[O-])cc(CN3CCOCC3)cc2c1O | 214 to 216 |
| CC1(C)NCCc2c1oc1cc(S(=O)(=O)c3cccc(F)c3)ccc21 | 110 to 114 |
| COCc1ccc(-c2ncccc2S(=O)(=O)Nc2ncc(C)nc2OC)cc1 | 129 to 130 |
| COc1ccc(CBr)c(CBr)c1 | 48 to 50 |
| CN(C(=O)OC(C)(C)C)c1cc(Sc2cc(C(C)(C)C)c(O)c(C(C)(C)C)c2)ccc1[N+](=O)[O-] | 140 to 141 |
| CSc1cc(C)nc(SC)c1NC(=O)CCCCCCCCSc1nc2ccccc2s1 | 126 to 127 |
| O=C(c1cccnc1)N1CC2CSc3ccccc3C2=N1 (stereo unspecified) | 173 to 175 |

The next lines start with the values.

| melting point [°C] | SMILES |
| --- | --- |
| 112 to 113 | COCc1cccc(C(C#N)c2nc(OC)cc(OC)n2)c1[N+](=O)[O-] (stereo unspecified) |
| 130 to 132 | COc1ccc2[nH]c(S(=O)Cc3cc(N)c(Br)cn3)nc2c1 (stereo unspecified) |
| 192 to 193 | O=C1c2ccccc2S(=O)(=O)N1C(c1cccs1)c1nnnn1-c1ccccc1 (stereo unspecified) |
| 72.5 to 74 | Cc1c(C)c2c(c(C)c1OCc1ccccc1)CC[C@@](C)(CC(=O)CC(=O)OCc1ccccc1)O2 |
| 68 | COC(=O)c1ccc(C(O)c2cnn3c(N(C)c4ccccc4)ncnc23)cc1 (stereo unspecified) |
| 195 | CC(C)n1c2ccccc2c2cc(NC(=O)c3ccccc3Cl)ccc21 |
| 108 to 110 | Fc1ccc(-c2cc(-c3ccccc3)c(-c3ccccc3)s2)cc1 |
| 203 to 206 | Nc1c2c(nc3cc(F)ccc13)CCCC2O (stereo unspecified) |
| 126 to 129 | CCOC(=O)c1cc(Cl)c(S(C)(=O)=O)c(-c2cc(C)no2)c1C |
| 134 to 136 | COc1ccc(Cl)cc1C(=O)NCCc1ccc(-c2ccccc2)c(S(N)(=O)=O)c1 |
| 228 | CN1C(=O)N(c2cc(Cl)cc(Cl)c2)C(=O)[C@]12CN(Cc1ccccc1)C[C@H]2c1ccc(-c2cncnc2)cc1 (relative stereo) |
| 105 to 107 | Cc1nc(N2CCN(Cc3ccc4nsnc4c3)C2=O)sc1C(=O)NCc1cccnc1 |
| 209 to 210 | C(=Cc1ccc(-c2nnc(-c3ccccc3)o2)cc1)c1ccc(-c2cnn(-c3ccccc3)n2)cc1 |
| 300 | CCn1cc(C(=O)O)c(=O)c2ccc(C=NNc3ccc(O)cc3)nc21 |
| 225 to 226 | CC(N)(C=CCP(=O)(O)O)C(=O)O (stereo unspecified) |
| 132 to 134 | O=[N+]([O-])c1c(Br)nn(CCO)c1NCCO |
| 110 to 120 | Cc1cc(-c2cccc(NC(=O)N[C@@H]3c4cc(C#N)ccc4OC(C)(C)[C@H]3O)c2)no1 |
| 78.6 to 79.5 | O=C(O)CCCCCNC(=O)Cc1ccsc1 |

| melting point [°C] | SMILES |
| --- | --- |
| 166 to 167 | COC(=O)C(C)(C)Cc1c(SC(C)(C)C)c2cc(OCc3ccc4ccccc4n3)ccc2n1Cc1ccc(Cl)cc1 |
| 229 to 230 | N#Cc1ccc(N(Cc2ccccc2)n2cnnc2)cc1-c1ccc(O)cc1 |
| 166 | Cc1cn(-c2ccc(Br)cc2C#N)cn1 |
| 115 to 117 | C/C(=C(\Br)C=O)c1ccc2c(c1)C(C)(C)CCC2(C)C |
| 158 to 160 | O=S(=O)(NCCO)c1ccc(Nc2nc(OCC3CCCCC3)c3nc[nH]c3n2)cc1 |
| 109 to 112 | CCOC(=O)C1=C(C)NC(CSC(=O)CCC2CCCCC2)=C(C(=O)OCC)C1c1cccc([N+](=O)[O-])c1 (stereo unspecified) |
| 120 to 122 | COc1ccc2cc(SCCC(=O)O)n(C)c2c1 |
| 260 to 262 | CCNc1cc(NS(=O)(=O)c2ccc(N)cc2)nc(N2CCC2)n1 |
| 147 to 149 | COc1ccccc1C(=O)Nc1cc(C)ccc1C#N |
| 127 to 128 | NCCOc1c(Cl)ccc2c1c1cccc3c1n2C(c1ccccc1)CO3 (stereo unspecified) |
| 260 to 264 | O=C(O)c1coc2ccc(Br)cc2c1=O |
| 119 to 122 | O=C(Nc1ccc(F)cc1F)N(Cc1ccccc1)CC1(c2ccccc2)CCCC1 |
| 68 to 72 | COc1ccc(Cc2ccc(CO)cc2)cc1 |
| 122 | Cn1nnc(CC[C@H]2CC[C@@H](c3ccc(F)cc3)N2S(=O)(=O)c2ccc(Cl)cc2)n1 (racemic) |
| 235 to 237 | CCCC1Sc2nncn2N=C1c1ccc2c(c1)NC(=O)CO2 (stereo unspecified) |
| 235 to 236 | O=c1c(CCC(O)c2ccncc2)cc2cccnc2n1-c1cccc([N+](=O)[O-])c1 (stereo unspecified) |
| 103 to 105 | Cc1nn(C)cc1C(=O)NC1=C(c2ccc(Cl)cc2)CCC1 |
| 278 to 280 | CC(C)(C)c1cc(C#Cc2ccc(NS(C)(=O)=O)cc2Cl)cc(N2CCC(=O)NC2=O)c1 |
